# US11596636B2, “Tailored combinatorial epigenetic therapies for P53 gain-of-function tumors” (The Trustees of the University of Pennsylvania, priority 2014, dated 2023)
# Assays:
# [1] = system: AT-1 cells (MLL-AF9 leukemia cell line); test: Growth analysis of AT-1 cells; type: cell-based, mouse; details: 10 μM ISC-30 vs DMSO
# Procedure: FIG. 15, comprising FIG. 15A through FIG. 15G, depicts the results of example experiments. (FIG. 15A) Chemical structure of ISC-30 compound [N,N′-bis(4-aminophenyl)-N,N′-dimethylethylenediamine]. (CID: 193110, NCI: 129674, Chemical formula: C16H22N4 Molecular weight: 270.37) (FIG. 15B) His-SUMO-MeninΔ460-519 (Menin) was titrated into wells containing fluorescence polarization buffer and FITC-MLL peptide (1.5 nM) to allow fluorescence polarization monitoring and calculation of the binding affinity. (FIG. 15C) Wild-type (WT) or Mutant (Mut) competitor MLL peptides were titrated into wells containing fluorescence polarization butter, His-SUMO-MeninΔ460-519 (5 nM), and FITC-MLL peptide (1.5 nM) and the inhibition of fluorescence polarization was monitored and utilized to normalize the ISC30 inhibition. […] (FIG. 15D) Peptide displacement assay measuring ISC-30 inhibition of menin-MLL1 interaction by the decrease in fluorescence polarization (FP) signal of a FITC labeled MLL1 peptide upon ISC-30 induced dissociation from menin. […]
# 200,000 cells were seeded on 950 mm^2 surface area (one well of 6-well plate) on Day 0. Cell number was measured every two days with Countess Automated Cell Counter (Life Technologies) following its standard procedure, and then 200,000 cells were plated back for the next counting. […]
# [2] = molecular target: T1, menin-MLL1 interaction (His-SUMO-Menin-Δ460-519, FITC-MLL peptide) (Homo sapiens, UniProt O00255, DEL460-519); test: Fluorescence polarization competition assay, FITC-MLL peptide displacement from menin; type: binding; details: FITC-MLL peptide 1.5 nM, His-SUMO-Menin-Δ460-519 5 nM
# T1 construct: made in house; host or cells: Rosetta (DE3-pLysS) E. coli
# T1 sequence (O00255 with tags, fused parts or gaps DEL460-519): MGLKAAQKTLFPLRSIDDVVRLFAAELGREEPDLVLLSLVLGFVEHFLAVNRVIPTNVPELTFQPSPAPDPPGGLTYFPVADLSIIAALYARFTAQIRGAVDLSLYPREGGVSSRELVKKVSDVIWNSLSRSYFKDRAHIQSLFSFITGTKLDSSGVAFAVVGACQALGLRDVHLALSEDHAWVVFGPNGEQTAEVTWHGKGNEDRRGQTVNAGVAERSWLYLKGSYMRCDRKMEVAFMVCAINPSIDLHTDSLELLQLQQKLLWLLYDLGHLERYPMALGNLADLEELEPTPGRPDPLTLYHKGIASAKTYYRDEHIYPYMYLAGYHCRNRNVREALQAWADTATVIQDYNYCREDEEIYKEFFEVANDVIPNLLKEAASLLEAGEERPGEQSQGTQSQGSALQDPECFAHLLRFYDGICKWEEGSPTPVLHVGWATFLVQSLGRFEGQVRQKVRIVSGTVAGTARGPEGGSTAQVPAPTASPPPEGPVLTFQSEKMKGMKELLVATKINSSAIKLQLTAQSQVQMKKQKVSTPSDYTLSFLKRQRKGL
# Procedure: (§1) FIG. 15, comprising FIG. 15A through FIG. 15G, depicts the results of example experiments. (FIG. 15A) Chemical structure of ISC-30 compound [N,N′-bis(4-aminophenyl)-N,N′-dimethylethylenediamine]. (CID: 193110, NCI: 129674, Chemical formula: C16H22N4 Molecular weight: 270.37) (FIG. 15B) His-SUMO-MeninΔ460-519 (Menin) was titrated into wells containing fluorescence polarization buffer and FITC-MLL peptide (1.5 nM) to allow fluorescence polarization monitoring and calculation of the binding affinity. (FIG. 15C) Wild-type (WT) or Mutant (Mut) competitor MLL peptides were titrated into wells containing fluorescence polarization butter, His-SUMO-MeninΔ460-519 (5 nM), and FITC-MLL peptide (1.5 nM) and the inhibition of fluorescence polarization was monitored and utilized to normalize the ISC30 inhibition. All measurements were blanked by subtracting the background signal taken from wells containing only buffer. mP=millipolarization. (FIG. 15D) Peptide displacement assay measuring ISC-30 inhibition of menin-MLL1 interaction by the decrease in fluorescence polarization (FP) signal of a FITC labeled MLL1 peptide upon ISC-30 induced dissociation from menin. […]
# ISC30 was titrated into the wells of a 384-well plate containing fluorescence polarization buffer (40 mM HEPES pH 7.9, 150 mM NaCl, 0.01% Triton-X-100, 10 mM 2-mercaptoethanol), FITC-MLL peptide (1.5 nM), and His-SUMO-Menin-Δ460-519 (5 nM). […]
# [3] = system: MDAH087 cells (p53 R248W, GOF p53); test: Growth curve analysis of LFS MDAH087 cells; type: cell-based, human; details: OICR-9429 2 μM or 4 μM, vs DMSO
# Procedure: (§2) (FIG. 10A) Endogenous co-IP of Menin and MLL1 in LFS MDAH087 cells upon treatment of DMSO or different concentrations of ISC-30.
# (§3) Li-Fraumeni Syndrome cell lines MDAH087 and MDAH041 were obtained from Dr. Michael A. Tainsky (Wayne State University, Detroit, Mich.) as a kind gift, and were cultured at 3% oxygen, in standard tissue culture medium.
# (§4) 200,000 cells were seeded on 950 mm^2 surface area (one well of 6-well plate) on Day 0. Cell number was measured every two days with Countess Automated Cell Counter (Life Technologies) following its standard procedure, and then 200,000 cells were plated back for the next counting. For shRNA mediated knockdown experiments, cells were seeded seven days after the initial infection of shRNA-containing lentivirus, during which puromycin selection was completed and cells were already put back to normal growth medium. For small compound inhibitor treatment experiments, inhibitors were added on Day 0 as cells were seeded and refreshed every other day as cells were counted and plated back.
# MDAH041 cells (p53 null) = test: Growth curve analysis of LFS MDAH041 cells; type: cell-based, human; details: OICR-9429 2 μM or 4 μM, vs DMSO
# Procedure: as §2, §3, §4
# [4] = molecular target: T2, menin-MLL1 interaction in MDAH087 cells (p53 GOF) (Homo sapiens, UniProt O00255); test: Endogenous co-IP of Menin and MLL1 in LFS MDAH087 cells; type: cell-based; details: different concentrations, vs DMSO
# T2 construct: endogenous in cells; host or cells: LFS MDAH087 (p53 R248W) and MDAH041 (p53 null) cells
# T2 sequence (O00255 1-610): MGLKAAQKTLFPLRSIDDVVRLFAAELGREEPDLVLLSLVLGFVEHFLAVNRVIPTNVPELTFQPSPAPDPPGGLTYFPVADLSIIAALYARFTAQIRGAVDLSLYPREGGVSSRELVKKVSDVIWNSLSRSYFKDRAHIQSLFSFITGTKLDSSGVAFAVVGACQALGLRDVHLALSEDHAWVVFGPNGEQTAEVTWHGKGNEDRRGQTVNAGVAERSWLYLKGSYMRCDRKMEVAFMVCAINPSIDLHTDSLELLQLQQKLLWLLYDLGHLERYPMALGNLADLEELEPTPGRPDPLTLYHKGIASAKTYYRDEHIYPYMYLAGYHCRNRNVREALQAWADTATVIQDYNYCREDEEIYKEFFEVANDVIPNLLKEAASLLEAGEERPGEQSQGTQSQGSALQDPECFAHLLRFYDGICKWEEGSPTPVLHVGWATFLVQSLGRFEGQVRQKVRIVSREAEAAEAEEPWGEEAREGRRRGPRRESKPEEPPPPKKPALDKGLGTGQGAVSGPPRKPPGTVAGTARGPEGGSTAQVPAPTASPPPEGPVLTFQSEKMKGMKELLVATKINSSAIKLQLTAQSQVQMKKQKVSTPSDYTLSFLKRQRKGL
# Procedure: (FIG. 10A) Endogenous co-IP of Menin and MLL1 in LFS MDAH087 cells upon treatment of DMSO or different concentrations of ISC-30. (FIG. 10B) & (FIG. 10C) Growth curve analysis of LFS (FIG. 10B) MDAH087 and (FIG. 10C) MDAH041 cells treated with DMSO, […] ISC-30 Menin inhibitor. (FIG. 10D) & (FIG. 10E) Growth curve analysis of LFS (FIG. 10D) MDAH087 and (FIG. 10E) MDAH041 cells treated with DMSO, […], or 20 μM MI-2-2 Menin inhibitor. (FIG. 10F) and (FIG. 10G) Growth curve analysis of LFS (FIG. 10F) MDAH087 and (FIG. 10G) MDAH041 cells treated with DMSO, 2 μM, or 4 μM OICR-9429 WDR5 inhibitor.
# Flag tagged ETS2 protein was expressed in HEK293T cells, which was then subjected to immunoprecipitation with Flag antibody conjugated Dynabeads. Then after washes, HA tagged WT or GOF p53 (generated by in vitro translation method (Thermo #88881)) was added to co-immunoprecipitate with Flag-ETS2. Endogenous co-IP experiments were performed in buffer containing: 20 mM Tris, pH 8.0, 137 mM NaCl, 1 mM MgCl2, 1 mM CaCl2, 1% NP-40, 10% glycerol, plus complete protease and phosphatase inhibitor (without EDTA), plus 12.5 U/ml benzonase (Novagen, 70746).
# [5] = system: Hoxa cluster genes in AT-1 cells (MLL-AF9 leukemia cell line); test: HoxA5 and HoxA9 mRNA levels in AT-1 cells; type: cell-based, mouse; details: after 2 days of treatment, vs DMSO
# Procedure: as §1, with “menin. (FIG. 15E) HoxA5 and HoxA9 mRNA levels after 2 days of ISC-30 or DMSO (vehicle control) treatment in AT-1 cells (mouse MLL-AF9 leukemia cell line). (FIG. 15F) Growth analysis of AT-1 cells treated with DMSO or 10 μM ISC-30.” for “menin.”
# [6] = molecular target: T3, menin-MLL1 interaction in MDAH041 cells (p53 null) (Homo sapiens, UniProt O00255); test: Endogenous co-IP of Menin and MLL1 in LFS MDAH041 cells; type: cell-based; details: different concentrations, vs DMSO
# T3 construct: endogenous in cells; host or cells: LFS MDAH087 (p53 R248W) and MDAH041 (p53 null) cells
# T3 sequence (O00255 1-610): T2 sequence (O00255 1-610)
# [7] = system: mll1 in MCF7 cells (WT p53); test: mll1 mRNA (RT-qPCR) and MLL1 protein (western blot) upon Nutlin treatment in MCF7 cells; details: Nutlin vs DMSO
# Excerpt: (FIG. 13B) RT-qPCR analysis of mRNA expression level changes upon DMSO or Nutlin treatment in MCF7 cells. (FIG. 13C) Western blot analysis of MLL1 protein levels upon DMSO or Nutlin treatment in MCF7 cells.
# [8] = system: H3K9ac in MDA468 cells (p53 R273H); test: Western blot of H3K9ac in MDA468 cells with mutant p53 knockdown; type: cell-based, human; details: etoposide treatment
# Excerpt: FIG. 4A depicts western blots depicting changes in histone modification (H3K4me3 and H3K9ac) in MDA468 cell line in response to control or p53 knockdown. FIG. 4B depicts the change in the abundance of H3K4me3 and H3K9ac following p53 GOF mutant knockdown, as well as the functional implication that the Rho and Ras pathways are most affected by p53 GOF mutant knockdown.
# Experiments were next conducted to evaluate the functional outcomes of the p53 GOF regulation of histone modification. FIG. 4A (left) depicts a Western blot analysis of the MDA468 cell line in response to control or p53 knockdown. It is shown that H3K9Ac decreases in response to knockdown of mutant p53, but no other histone modifications appear to be affected.
compound,measurement,setting,value
"CN(CCN(C)c1ccc(N)cc1)c1ccc(N)cc1 [ISC-30, N,N′-bis(4-aminophenyl)-N,N′-dimethylethylenediamine]",growth of AT-1 cells,[1],reduced
same,concentration at which the compound started to inhibit menin-MLL1 interaction,[2],approximately 2 μM
same,IC50,"[2]; normalized IC50, read-out: IC50, inhibition of menin-MLL1 interaction",32 µM
same,GOF p53 cell growth,[3],dose-dependent inhibition
same,p53 null cell growth,MDAH041 cells (p53 null),very little effect
same,menin-MLL1 interaction at endogenous levels (co-IP),[4],blocked menin-MLL1 interaction at endogenous levels in a dose-dependent manner
same,expression of Hoxa cluster genes (HoxA5 and HoxA9 mRNA levels),[5],decreased expression of Hoxa cluster genes
same,menin-MLL1 interaction at endogenous levels (co-IP),[6],blocked menin-MLL1 interaction at endogenous levels in a dose-dependent manner
CC1(C)CN=C(N2CCN(c3ncnc4sc(CC(F)(F)F)cc34)CC2)S1 [MI-2-2],GOF p53 cell growth,[3],dose-dependent inhibition
COc1ccc(C2=NC(c3ccc(Cl)cc3)C(c3ccc(Cl)cc3)N2C(=O)N2CCNC(=O)C2)c(OC(C)C)c1 (stereo not shown) [Nutlin],mll1 expression upon stabilization and elevation of WT p53 levels,[7],not upregulated
CN1CCN(c2ccc(-c3cccc(CN4CCOCC4)c3)cc2NC(=O)c2c[nH]c(=O)cc2C(F)(F)F)CC1 [OICR-9429],GOF p53 cell growth,[3],dose-dependent inhibition
same,p53 null cell growth,MDAH041 cells (p53 null),little effect
COc1cc([C@@H]2c3cc4c(cc3[C@@H](O[C@@H]3O[C@@H]5CO[C@@H](C)O[C@H]5[C@H](O)[C@H]3O)[C@H]3COC(=O)[C@H]23)OCO4)cc(OC)c1O [etoposide],loss of H3K9ac in response to knockdown of mutant p53,[8],not affected
